Results on 2 compounds are retold here after US20100222404A1, “INDAZOLE DERIVATIVE DIHYDROCHLORIDE” (ASAHI KASEI PHARMA CORPORATION, priority 2008, published 2010).

Data set [1] in a line: Test for measuring solubility (Test Example 2, saturated solution by HPLC). In kind it is physicochemical. As to conditions: room temperature; for solubility thermodynamic at 1 h: thermodynamic from solid, read-out: Saturated solution concentration. The protocol: The “dihydrochloride salt” was precisely weighed in the amounts indicated in Table 2, and 20 ml each of the solvent was added to the weighed samples. The samples were shaken for one hour at room temperature. After it was visually checked that the samples were not completely dissolved, the samples were centrifuged (10° C., 3000 RPM, 20 minutes), and the supernatant was filtered through a Membrane filter, to thereby produce saturated solutions. Each of the saturated solutions was analyzed by HPLC, and the concentration of the saturated solution was calculated from the peak area.

The nature of data set [2]: Test for measuring solubility (Test Example 1, saturated solution by HPLC). It counts as physicochemical. As to conditions: for solubility thermodynamic at 1 h: thermodynamic from solid, room temperature, read-out: Saturated solution concentration. The protocol: About 50 mg each of the “monohydrochloride salt” and the “dihydrochloride salt” were precisely weighed, and were each suspended in a solvent so as to obtain a concentration of 500 mg/ml, respectively. Each suspension was sonicated for 10 minutes, and then was shaken at room temperature for one hour. Subsequently, each of the supernatant of the suspension was subjected to centrifugal filtration (10° C., 3000 RPM, 20 minutes) using a centrifugal filter (Ultrafree-MC PTFE 0.2 μm, manufactured by Millipore, Inc.), to thereby prepare a saturated solution. Each of the saturated solutions was analyzed by HPLC, and the concentration of the saturated solution was calculated from the peak area.

A short description of data set [3]: Blood concentration measurement test (AUC after oral enteric capsule). As to conditions: for AUC(0-inf): dog, compound 1 free form measured in blood plasma, read-out: AUCinf mean; for AUC(0-inf) / AUCinf CV (coefficient of variation): male beagle dogs, fasting, oral enteric capsule, 1 mg/kg as free form. In kind it is in vivo, male beagle dogs. The method, then:
The “monohydrochloride salt” and the “dihydrochloride salt” were respectively filled in an enteric capsule (Eudragit L coat, No. 5) to an amount of administration of 1 mg/kg in terms of the “compound 1” in a free form. The capsules were forcibly orally administered to male beagle dogs (Oriental Yeast Co., Ltd.) under fasting. 0.5, 1, 2, 3, 4, 6, 8, 10 and 24 hours after the administration, about 1 mL of blood was collected from the cephalic vein under non-anesthesia conditions, with a 2.5-mL syringe through which a heparin sodium solution had been passed through in advance (equipped with a 23 G injection needle). The collected blood was cooled in ice, and the blood plasma was separated by a centrifugal operation. After a lapse of 6 hours from the administration, the dogs were fed with a usual amount of food. The concentration of the “compound 1” in a free form in the blood plasma was measured by the LC/MS/MS method in each case, and the AUC was calculated using the Non-Compartment model of WinNonlin software v5.0.1. (in the table, AUCinf means the “AUC obtained when the blood plasma concentration was extrapolated from zero to the infinity”, mean is the “average”, SD is the “standard deviation”, and CV is the “coefficient of variation”.)

Setting [4] is: aqueous buffer, pH 6.8 Buffer solution (phosphate buffer solution).
Where [5] appears, read: saline or isotonic, Physiological saline, shaken one hour.
Setting [6] is: simulated gastric fluid, pH 1.2 Buffer solution (1st fluid for dissolution test).

As for `Cc1n[nH]c2cc(OCCNC[C@H](O)c3cccc(NS(C)(=O)=O)c3)ccc12.Cl.Cl` [dihydrochloride salt, (R)—N-[3-[2-[2-(3-methylindazol-6-yloxy)ethylamino]-1-hydroxyethyl]phenyl]methanesulfonamide dihydrochloride], the Saturated solution concentration in data set [1] (Ethanol, 0.1 g in 20 ml) worked out at 0.516 mg/mL. Also, the solubility thermodynamic at 1 h was 147 mg/mL in data set [1] (aqueous buffer, pH 4.0 Buffer solution (0.05 mol/L acetic acid/sodium acetate), 4 g in 20 ml); 156 mg/mL in data set [1] (aqueous buffer, pH 6.8 Buffer solution (2nd fluid for dissolution test), 4 g in 20 ml); 98.8 mg/mL in data set [1] (saline or isotonic, Physiological saline, 5 g in 20 ml); 97.8 mg/mL in data set [1] (simulated gastric fluid, pH 1.2 Buffer solution (1st fluid for dissolution test), 4 g in 20 ml); 143 mg/mL in data set [1] (Water, 5 g in 20 ml); 210 mg/mL in data set [2] (setting [4]). Moreover, the solubility thermodynamic at 1 h was 125 mg/mL in data set [2] (setting [5]); 128 mg/mL in data set [2] (setting [6]); 189 mg/mL in data set [2] (Water, shaken one hour). In addition, the “Solubility compared with the monohydrochloride salt” value in data set [2] (results of Table 1) was “significantly higher solubility”. For the same compound, the AUC(0-inf) in data set [3] stood at 1390 ng·h/mL. In data set [3] (dogs, oral administration using enteric capsules), the “Variation of the AUC (CV) compared with the monohydrochloride salt” value is on record as “smaller”. In data set [3], the “AUCinf CV (coefficient of variation)” value was found to be 29.5%.

For `Cc1n[nH]c2cc(OCCNC[C@H](O)c3cccc(NS(C)(=O)=O)c3)ccc12.Cl` [monohydrochloride salt, (R)—N-[3-[2-[2-(3-methylindazol-6-yloxy)ethylamino]-1-hydroxyethyl]phenyl]methanesulfonamide hydrochloride, reference compound], the solubility thermodynamic at 1 h was 23.7 mg/mL in data set [2] (setting [4]); 32.2 mg/mL in data set [2] (setting [5]); 73.5 mg/mL in data set [2] (setting [6]); 36.7 mg/mL in data set [2] (Water, shaken one hour). Further, the AUC(0-inf) in data set [3] stood at 1110 ng·h/mL. Further, the “AUCinf CV (coefficient of variation)” value in data set [3] is listed as 70.0%.
